The test concerns the target T1, human β3 adrenergic receptor (Homo sapiens, UniProt P13945).
T1 construct: expressed in transfected cells; host or cells: CHO (Chinese hamster ovary) cells, stably transfected
Description: Beta-3 agonist in vitro functional assay (cAMP production, LANCE, transfected CHO cells). Format: cell-based. How it is done: Functional Assay: For compounds in examples 1-50, cAMP production in response to ligand is measured according to Barton, et al. (1991, Agonist-induced desensitization of D2 dopamine receptors in human Y-79 retinoblastoma cells. Mol. Pharmacol. […]:650-658) modified as follows. The cAMP production is measured using a homogenous time-resolved fluorescence resonance energy transfer immunoassay (LANCE™, Perkin Elmer) according to the manufacture's instructions. Chinese hamster ovary (CHO) cells, stably transfected with the cloned β-adrenergic receptor (β1, β2 or β3) are harvested after 3 days of subculturing. Harvesting of cells is done with Enzyme-free Dissociation Media (Specialty Media). Cells are then counted and resuspended in assay buffer (Hank's Balanced salt solution supplemented with 5 mM HEPES, […]) containing a phosphodiesterase inhibitor (IBMX, 0.6 mM). The reaction is initiated by mixing 6,000 cells in 6 μL with 6 μL Alexa Fluor labeled cAMP antibody (LANCE™ kit) which is then added to an assay well containing 12 μL of compound (diluted in assay buffer to 2× final concentration). The reaction proceeds for 30 minutes at RT and is terminated by the addition of 24 ul detection buffer (LANCE™ kit). The assay plate is then incubated for 1 h at RT and time-resolved fluorescence measured on a Perkin Elmer Envision reader or equivalent. The unknown cAMP level is determined by comparing fluorescence levels to a cAMP standard curve.
The non-selective, full agonist β-adrenergic ligand isoproterenol is used at all three receptors to determine maximal stimulation. The human β3 adrenergic receptor (AR) selective ligand (S)-N-[4-[2-[[2-hydroxy-3-(4-hydroxyphenoxy)propyl]amino]ethyl]-phenyl]-4-iodobenzenesulfonamide is used as a control in all assays. […] The EC50 is defined as the concentration of compound that gives 50% activation of its own maximum. Data are analyzed using Microsoft Excel and Graphpad Prism or an internally developed data analysis software package.
The EC50 is defined as the concentration of compound that gives 50% activation of its own maximum. Functional antagonist assays are performed similar to described above; however, unknown ligands are titrated at β-adrenergic receptor subtypes 1 and 2 at a final concentration in the assay of 10^-12 M to 10^-5 M in the presence of 10^-9 M full agonist β-adrenergic ligand isoproterenol. The EC50 is defined as the concentration of compound that gives 50% inhibition of the full agonist response. Data are analyzed using Microsoft Excel and Graphpad Prism or an internally developed data analysis software package.

[1] abbreviates: Table 3, CHO cells with cloned β3 receptor, ligands titrated 10^-12 M to 10^-5 M, read-out: Human β3 agonist functional activity.
The mark [2] stands for this setting: given as a range, CHO cells with cloned β3 receptor, read-out: human Beta-3 agonist functional activity.
Setting [3] is: Table 1, CHO cells with cloned β3 receptor, ligands titrated 10^-10 M to 10^-5 M, read-out: Human β3 agonist functional activity.

pEC50: −log10 of the molar value. Like-named read-outs stand apart in the source and are kept apart here.

T1 sequence (P13945 whole entry): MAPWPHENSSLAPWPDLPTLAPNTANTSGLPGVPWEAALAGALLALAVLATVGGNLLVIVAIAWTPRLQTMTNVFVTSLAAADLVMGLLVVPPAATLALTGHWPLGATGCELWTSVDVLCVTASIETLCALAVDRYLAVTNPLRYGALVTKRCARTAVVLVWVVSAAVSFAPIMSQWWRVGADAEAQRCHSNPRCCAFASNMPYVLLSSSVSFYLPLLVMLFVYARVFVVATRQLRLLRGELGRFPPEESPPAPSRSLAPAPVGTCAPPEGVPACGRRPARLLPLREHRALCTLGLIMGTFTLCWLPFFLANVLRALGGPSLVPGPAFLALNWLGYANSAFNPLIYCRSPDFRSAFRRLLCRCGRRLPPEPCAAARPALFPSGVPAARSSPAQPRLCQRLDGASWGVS

`CN(Cc1cccnn1)C(=O)c1ccc(C[C@@H]2CC[C@H]([C@H](O)c3ccccc3)N2)cc1` [Example 55]: the pEC50 under setting [1] was 6.00 to 7.00.

Consider `CN(Cc1cccnc1Cl)C(=O)c1ccc(C[C@@H]2CC[C@H]([C@H](O)c3ccccc3)N2)cc1` [Example 124], for which the pEC50 under setting [1] is 7.00 to 8.00.

Regarding `O=C(NCc1nc(-c2ccccc2)n[nH]1)c1ccc(C[C@@H]2CC[C@H]([C@H](O)c3ccccc3)N2)cc1` [Example 1, 4-({(2S,5R)-5-[(R)-hydroxy(phenyl)methyl]pyrolidin-2-yl}methyl)-N-[(3-phenyl-1H-1,2,4-triazol-5-yl)methyl]benzamide], the pEC50 under setting [2] was 8.00 to 9.00.

`O=C(NCc1cnccn1)c1ccc(C[C@@H]2CC[C@H]([C@H](O)c3ccccc3)N2)cc1` [Example 10]: the pEC50 under setting [3] was 6.00 to 7.00.

On to `O=C(NCc1cc(-c2ccccc2)n[nH]1)c1ccc(C[C@@H]2CC[C@H]([C@H](O)c3ccccc3)N2)cc1` [Example 32], for which the pEC50 under setting [3] is 7.00 to 8.00.

Turning to `O=C(NCc1nccc2ccccc12)c1ccc(C[C@@H]2CC[C@H]([C@H](O)c3ccccc3)N2)cc1` [Example 42], the pEC50 under setting [3] was 8.00 to 9.00.

For the compound `CC(c1ccccn1)N(C)C(=O)c1ccc(CC2CC[C@H]([C@H](O)c3ccccc3)N2)cc1` (stereo partly shown) [Example 137], the pEC50 under setting [2] was 6.00 to 7.00.

For `O=C(NCc1nc2ccccc2s1)c1ccc(C[C@@H]2CC[C@H]([C@H](O)c3cccnc3)N2)cc1` [Example 41], the pEC50 under setting [3] is 7.00 to 8.00.

For `CC(NC(=O)c1ccc(C[C@@H]2CC[C@H]([C@H](O)c3ccccc3)N2)cc1)c1cnccn1` (stereo partly shown) [Example 11], the pEC50 under setting [3] is 5.52 to 6.00.

Consider `CN(Cc1cnc2ccccc2n1)C(=O)c1ccc(C[C@@H]2CC[C@H]([C@H](O)c3ccccc3)N2)cc1` [Example 61], for which the pEC50 under setting [1] was 8.00 to 9.00.

As to `CN(Cc1cc2ccccc2cn1)C(=O)c1ccc(C[C@@H]2CC[C@H]([C@H](O)c3ccccc3)N2)cc1` [Example 52], the pEC50 under setting [1] is 6.00 to 7.00.

In the case of `O=C(NCc1cc(-c2ccccc2)no1)c1ccc(C[C@@H]2CC[C@H]([C@H](O)c3ccc[n+]([O-])c3)N2)cc1` [Example 31], the pEC50 under setting [3] is 6.00 to 7.00.

With `O=C(NCc1nc2ccncc2[nH]1)c1ccc(C[C@@H]2CC[C@H]([C@H](O)c3ccccc3)N2)cc1` [Example 38], under setting [3], the pEC50 is 8.00 to 9.00.

For the compound `CC(C)c1nc(CCN(C)C(=O)c2ccc(C[C@@H]3CC[C@H]([C@H](O)c4ccccc4)N3)cc2)no1` [Example 89], under setting [1], the pEC50 was 7.00 to 8.00.

In the case of `CN(Cc1nc2ccsc2c(=O)[nH]1)C(=O)c1ccc(C[C@@H]2CC[C@H]([C@H](O)c3ccccc3)N2)cc1` [Example 114], under setting [1], the pEC50 is 8.00 to 9.00.

As to `O=C(NCc1ncccc1F)c1ccc(C[C@@H]2CC[C@H]([C@H](O)c3ccccc3)N2)cc1` [Example 4], the pEC50 under setting [3] is 7.00 to 8.00.

In the case of `CN(Cc1nc(-c2ccncc2)no1)C(=O)c1ccc(C[C@@H]2CC[C@H]([C@H](O)c3ccccc3)N2)cc1` [Example 103], under setting [1], the pEC50 was 6.00 to 7.00.

`O=C(NCc1ccncn1)c1ccc(C[C@@H]2CC[C@H]([C@H](O)c3ccccc3)N2)cc1` [Example 12]: the pEC50 under setting [3] was 7.00 to 8.00.

Take `O=C(NCc1ncccn1)c1ccc(C[C@@H]2CC[C@H]([C@H](O)c3ccccc3)N2)cc1` [Example 9]: under setting [3], the pEC50 is 6.00 to 7.00.

Regarding `Cc1ccnc(CNC(=O)c2ccc(C[C@@H]3CC[C@H]([C@H](O)c4ccccc4)N3)cc2)n1` [Example 18], the pEC50 under setting [3] is 7.00 to 8.00.

For `O=C(NCc1nccc(C(F)(F)F)n1)c1ccc(C[C@@H]2CC[C@H]([C@H](O)c3ccccc3)N2)cc1` [Example 14], under setting [3], the pEC50 was 7.00 to 8.00.

`CN(Cc1cccnc1)C(=O)c1ccc(C[C@@H]2CC[C@H]([C@H](O)c3ccc(N)nc3)N2)cc1` [Example 59]: the pEC50 under setting [1] was greater than 9.00.

Consider `Cc1nccc(CN(C)C(=O)c2ccc(C[C@@H]3CC[C@H]([C@H](O)c4ccccc4)N3)cc2)n1` [Example 81], for which, under setting [1], the pEC50 is 7.00 to 8.00.

Consider `CCN(Cc1cccnn1)C(=O)c1ccc(C[C@@H]2CC[C@H]([C@H](O)c3ccccc3)N2)cc1` [Example 129], for which the pEC50 under setting [1] was 6.00 to 7.00.

Regarding `CN(CCC1CCOCC1)C(=O)c1ccc(C[C@@H]2CC[C@H]([C@H](O)c3ccccc3)N2)cc1` [Example 99], under setting [1], the pEC50 is 6.00 to 7.00.
